Measurements taken from patent US20250064789A1, “KETOAMIDE DERIVATIVES AND PHARMACEUTICAL USES THEREOF” (priority 2022, published 2025).

Tests used:
[1] = biological target: hERG potassium ion channels (Homo sapiens (Human), UniProt Q12809); assay: hERG potassium current, whole cell patch clamp in HEK-293-hERG cells; conditions: 0.1 μM
[2] = test system: BEAS-2B cells (normal human bronchial epithelial cells); assay: Cytotoxic assay against human BEAS-2B cells (MTT, 72 h); format: cell-based
Experimental: (§1) BEAS-2B cells (normal human bronchial epithelial cells) and HUVEC cells (human umbilical vein endothelial cells) were used to evaluate the cytotoxicity of compounds against human-derived cells. The detailed experimental procedures: BEAS-2B cells or HUVEC cells were seeded into a 96-well plate at a cell density of 2×10^4 cells/well, that is, 100 µL/well, and then incubated overnight at 37° C. in a 5% CO2 incubator. The next day, 100 μL of drug-containing medium was added to each well. The compound was diluted in a 2-fold serial dilution with a top concentration of […], for a total of 6 gradients. Three repeated wells were set for each concentration, and negative controls and blank controls without drugs were included for each experiment. […] All experimental data were analyzed using GraphPad Prism software.

human cathepsin B = human cathepsin B (Homo sapiens (Human), UniProt P07858); assay: Human protease biochemical activity assay: Cathepsin B inhibitor screening kit
Experimental: (§2) The biochemical activity of compounds against human proteases was determined using Cathepsin K inhibitor screening kit (K150-100), Cathepsin B inhibitor screening kit (K147-100), Thrombin activity testing kit (K373-100), Caspase-2 inhibitor screening kit (K152-100), and Cathepsin D inhibitor screening kit (K148-100) according to the instructions of the kits (Biovision, USA). All experiments were carried out in triplicate. All experimental data were analyzed using GraphPad Prism software.

in vivo = conditions: male, Sprague-Dawley, rat
human caspase 2 = human caspase 2 (Homo sapiens (Human), UniProt P42575); assay: Human protease biochemical activity assay: Caspase-2 inhibitor screening kit; conditions: read-out: Caspase-2 IC50
Experimental: as §2

human thrombin = human thrombin (Homo sapiens (Human), UniProt P00734); assay: Human protease biochemical activity assay: Thrombin activity testing kit; conditions: read-out: Thrombin IC50
Experimental: as §2

human cathepsin D = human cathepsin D (Homo sapiens (Human), UniProt P07339); assay: Human protease biochemical activity assay: Cathepsin D inhibitor screening kit
Experimental: as §2

[3] = male, Sprague-Dawley, rat, in vivo, iv, 1 mg/kg
[4] = test system: HUVEC cells (human umbilical vein endothelial cells); assay: Cytotoxic assay against HUVEC cells (MTT, 72 h); format: cell-based
Experimental: as §1

human cathepsin K = human cathepsin K (Homo sapiens (Human), UniProt P43235); assay: Human protease biochemical activity assay: Cathepsin K inhibitor screening kit; conditions: read-out: Cathepsin K IC50
Experimental: as §2

[5] = biological target: recombinant SARS-CoV-2 M^pro (Severe acute respiratory syndrome coronavirus 2 (2019-nCoV) (SARS-CoV-2), UniProt P0DTD1); assay: Inhibition of SARS-CoV-2 M^pro enzyme activity (fluorescent substrate assay); format: biochemical; conditions: inhibition of SARS-CoV-2 M^pro enzyme activity; values in nM; read-out: IC50
[6] = In vivo pharmacokinetic properties in rats; conditions: SD rats
Vero E6 cells = assay: Cytotoxic assay against Vero E6 cells (MTT, 72 h); format: cell-based
Experimental: The cytotoxicity assessment of compounds was performed against Vero E6 cells. The specific experimental procedures: Vero E6 cells were seeded into a 96-well plate at a cell density of 2×10^4 cells/well, with 100 μL/well, and then incubated overnight at 37° C. in a 5% CO2 incubator. The next day, 100 μL of drug-containing medium was added to each well. The compound was diluted in a 2-fold serial dilution with a top concentration of […], for a total of 6 gradients. Three repeated wells were set for each concentration, and negative controls and blank controls without drugs were included for each experiment. […] All experimental data were analyzed using GraphPad Prism software.

[7] = Metabolic stability using human liver microsomes; format: in vitro ADME; conditions: NADPH, 37° C.

Sequence of human cathepsin K (P43235 115-329): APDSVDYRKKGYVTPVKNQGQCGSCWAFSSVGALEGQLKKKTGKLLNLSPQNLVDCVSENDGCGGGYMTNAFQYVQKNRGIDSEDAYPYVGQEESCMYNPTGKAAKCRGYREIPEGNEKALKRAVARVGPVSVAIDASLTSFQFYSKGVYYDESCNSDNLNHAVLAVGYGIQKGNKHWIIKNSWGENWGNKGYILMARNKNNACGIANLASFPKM
Sequence of human cathepsin D (P07339 65-412): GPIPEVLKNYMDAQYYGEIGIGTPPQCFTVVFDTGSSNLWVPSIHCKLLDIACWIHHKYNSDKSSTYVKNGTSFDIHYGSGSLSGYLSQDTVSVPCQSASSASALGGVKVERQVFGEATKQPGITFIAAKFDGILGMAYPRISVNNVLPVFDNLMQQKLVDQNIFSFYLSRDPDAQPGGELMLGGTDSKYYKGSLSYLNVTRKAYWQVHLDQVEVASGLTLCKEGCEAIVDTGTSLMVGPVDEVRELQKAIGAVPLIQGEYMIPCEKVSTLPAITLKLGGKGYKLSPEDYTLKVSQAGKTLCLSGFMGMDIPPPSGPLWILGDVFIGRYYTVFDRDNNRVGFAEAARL
Sequence of human caspase 2 (P42575 170-325): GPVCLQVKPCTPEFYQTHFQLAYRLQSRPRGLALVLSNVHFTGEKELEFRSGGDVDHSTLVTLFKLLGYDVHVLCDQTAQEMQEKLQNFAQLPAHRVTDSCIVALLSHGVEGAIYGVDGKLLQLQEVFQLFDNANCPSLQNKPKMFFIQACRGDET
Sequence of human caspase 2 (P42575 348-452): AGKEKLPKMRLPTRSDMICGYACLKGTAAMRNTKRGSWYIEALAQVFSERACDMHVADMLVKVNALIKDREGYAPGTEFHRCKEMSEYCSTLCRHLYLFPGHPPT
Sequence of hERG potassium ion channels (Q12809 whole entry, looked up): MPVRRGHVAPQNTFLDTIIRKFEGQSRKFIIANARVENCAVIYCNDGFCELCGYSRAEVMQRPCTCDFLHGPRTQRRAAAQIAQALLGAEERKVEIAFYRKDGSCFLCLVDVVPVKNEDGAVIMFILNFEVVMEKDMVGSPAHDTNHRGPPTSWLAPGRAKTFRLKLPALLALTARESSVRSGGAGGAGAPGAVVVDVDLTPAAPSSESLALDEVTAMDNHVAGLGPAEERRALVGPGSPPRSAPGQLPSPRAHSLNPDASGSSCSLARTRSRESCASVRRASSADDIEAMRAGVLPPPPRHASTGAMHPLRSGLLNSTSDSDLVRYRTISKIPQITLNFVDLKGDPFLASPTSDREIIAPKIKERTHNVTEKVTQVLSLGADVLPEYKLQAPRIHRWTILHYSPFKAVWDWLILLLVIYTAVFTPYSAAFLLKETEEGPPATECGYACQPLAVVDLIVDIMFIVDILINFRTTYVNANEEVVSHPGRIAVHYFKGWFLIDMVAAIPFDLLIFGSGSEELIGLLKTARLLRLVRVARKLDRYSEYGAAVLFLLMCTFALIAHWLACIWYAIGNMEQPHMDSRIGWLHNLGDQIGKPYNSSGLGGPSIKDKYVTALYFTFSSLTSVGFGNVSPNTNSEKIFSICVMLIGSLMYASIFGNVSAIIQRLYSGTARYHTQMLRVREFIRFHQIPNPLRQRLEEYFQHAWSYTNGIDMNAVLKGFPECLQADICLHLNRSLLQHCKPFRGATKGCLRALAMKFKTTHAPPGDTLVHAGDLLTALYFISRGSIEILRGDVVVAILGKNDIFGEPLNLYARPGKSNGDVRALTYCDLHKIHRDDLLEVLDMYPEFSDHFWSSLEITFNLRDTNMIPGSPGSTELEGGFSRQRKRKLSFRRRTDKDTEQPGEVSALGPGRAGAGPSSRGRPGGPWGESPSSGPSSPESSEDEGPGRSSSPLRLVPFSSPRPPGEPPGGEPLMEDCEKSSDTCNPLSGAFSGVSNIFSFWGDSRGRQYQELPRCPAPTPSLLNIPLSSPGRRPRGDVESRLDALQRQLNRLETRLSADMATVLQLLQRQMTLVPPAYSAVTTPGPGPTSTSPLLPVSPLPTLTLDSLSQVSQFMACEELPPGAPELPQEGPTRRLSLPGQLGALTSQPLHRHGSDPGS

SMILES | CC50 [2] [µM] | IC50 (human cathepsin B) [µM] | MRT inf (in vivo; iv, 1 mg/kg) [h] | Tmax (in vivo; iv, 1 mg/kg) [h] | MRT inf (in vivo; po, 10 mg/kg) [h] | IC50 (human caspase 2) [µM] | IC50 (human thrombin) [µM] | IC50 (human cathepsin D) [µM] | Vssobs [3] [L/kg] | CC50 [4] [µM] | IC50 (human cathepsin K) [µM] | IC50 [5] [nM] | AUCINF—obs ([6]; i.v. 1 mg/kg) [ng·h/mL] | AUClast ([6]; i.v. 1 mg/kg) [ng·h/mL] | Cmax ([6]; i.v. 1 mg/kg) [ng/mL] | AUCINF—obs ([6]; p.o. 10 mg/kg) [ng·h/mL] | AUClast ([6]; p.o. 10 mg/kg) [ng·h/mL] | Cmax ([6]; p.o. 10 mg/kg) [ng/mL] | T1/2 ([6]; p.o. 10 mg/kg) [h] | CC50 (Vero E6 cells) [µM] | also measured
COc1cc(N)c(Cl)cc1C(=O)NC1CCN(CCCOc2ccc(F)cc2)CC1OC (stereo not shown) [Cisapride, reference compound] |  |  |  |  |  |  |  |  |  |  |  |  |  |  |  |  |  |  |  |  | The average tail current after administration [1]: 128.04 pA
C[C@@H](NC(=O)CC1CC(F)(F)C1)C(=O)N[C@H](Cc1ccccc1)C(=O)C(=O)NCc1nccs1 [Compound 378] | > 500 | > 100 | 3.19 ± 0.31 | 0.08 | 6.57 ± 0.38 | > 100 | > 100 | > 100 | 3.65 ± 0.74 | > 500 | > 100 | 21.2 ± 0.3 | 2254.80 ± 672.40 | 2196.61 ± 634.20 | 1568.34 ± 201.27 | 8696.48 ± 1124.53 | 8180.11 ± 795.05 | 734.80 ± 101.62 | 5.84 ± 1.30 | > 500 | bioavailability (in vivo; po, 10 mg/kg): 7.95 ± 2.8%; CL ([6]; i.v. 1 mg/kg): 7.95 ± 2.80 mL/min/kg; T1/2 ([6]; i.v. 1 mg/kg): 5.47 ± 0.77 h; Tmax ([6]; p.o. 10 mg/kg): 1.33 ± 0.58 h
C[C@@H](NC(=O)C1CCC(F)(F)C1)C(=O)N[C@H](Cc1ccccc1)C(=O)C(=O)NCc1nccs1 (stereo partly shown) [Compound 379] | > 500 | > 100 | 1.26 ± 0.42 | 0.08 | 5.9 ± 0.79 | > 100 | > 100 | > 100 | 2.49 ± 1.61 | > 500 | > 100 | 22.5 ± 0.7 | 1329.00 ± 555.62 | 1292.28 ± 530.92 | 1317.59 ± 168.03 | 6903.48 ± 2619.87 | 6721.57 ± 2461.95 | 634.54 ± 161.39 | 4.15 ± 1.48 | > 500 | Human liver microsomes T1/2 [7]: 0.7035 h; CL ([6]; i.v. 1 mg/kg): 14.52 ± 7.25 mL/min/kg; T1/2 ([6]; i.v. 1 mg/kg): 1.90 ± 0.27 h; F % ([6]; p.o. 10 mg/kg): 52.01 ± 19.05%; Tmax ([6]; p.o. 10 mg/kg): 1.67 ± 0.58 h
COC[C@@H](NC(=O)C1CCC(F)(F)CC1)C(=O)N[C@H](Cc1ccccc1)C(=O)C(=O)NCc1nccs1 [Compound 395] | 159 | > 100 | 3.55 ± 0.52 | 0.08 | 7.63 ± 0.57 | > 100 | > 100 | > 100 | 5.25 ± 2.13 | 129 | > 100 | 18.4 ± 1.3 | 2829.72 ± 958.55 | 2574.49 ± 819.96 | 1697.71 ± 237.45 | 13950.66 ± 782.95 | 12675.30 ± 1265.92 | 1006.49 ± 114.61 | 6.64 ± 1.17 | 132 | Human liver microsomes T1/2 [7]: 0.6498 h; Tmax (in vivo; po, 10 mg/kg): 4 h; CL ([6]; i.v. 1 mg/kg): 6.48 ± 2.63 mL/min/kg; T1/2 ([6]; i.v. 1 mg/kg): 9.49 ± 2.16 h; F % ([6]; p.o. 10 mg/kg): 49.23 ± 4.92%
COC[C@@H](NC(=O)CC1CC(F)(F)C1)C(=O)N[C@H](Cc1ccccc1)C(=O)C(=O)NCc1nccs1 [Compound 400] | > 500 | > 100 | 3.18 ± 0.52 | 0.08 | 6.47 ± 0.5 | > 100 | > 100 | > 100 | 3.28 ± 1.17 | > 500 | > 100 | 10.2 ± 0.1 | 2394.12 ± 644.94 | 2357.97 ± 638.69 | 1352.62 ± 116.10 | 11166.54 ± 364.00 | 10791.37 ± 123.59 | 805.87 ± 75.43 | 4.67 ± 1.04 | > 500 | Human liver microsomes T1/2 [7]: 0.5067 h; Tmax (in vivo; po, 10 mg/kg): 2 h; CL ([6]; i.v. 1 mg/kg): 7.30 ± 1.90 mL/min/kg; T1/2 ([6]; i.v. 1 mg/kg): 5.09 ± 0.57 h; F % ([6]; p.o. 10 mg/kg): 45.77 ± 0.52%
C[C@@H](NC(=O)C1CCC(F)(F)CC1)C(=O)N[C@H](Cc1ccccc1)C(=O)C(=O)NCc1nccs1 [Compound 354] | > 500 |  | 0.93 ± 0.18 | 0.08 | 4.89 ± 1.14 |  |  |  | 1.31 ± 0.54 | > 500 |  |  | 1020.76 ± 261.50 | 1011.17 ± 258.49 | 1105.29 ± 69.99 | 2844.61 ± 326.65 | 2567.31 ± 678.74 | 306.27 ± 32.12 | 3.01 ± 0.91 | > 500 | Human liver microsomes T1/2 [7]: 0.5935 h; half-life (in vivo; iv, 1 mg/kg): 2.42 ± 2.24 h; F % ([6]; p.o. 10 mg/kg): 25.39 ± 6.71%; Tmax ([6]; p.o. 10 mg/kg): 2.67 ± 1.15 h
